Experimental data as given in US20220324912A1, “THERAPEUTIC PEPTIDES” (COHBAR, INC., priority 2019, published 2022).
Non-standard residues stand in square brackets, D forms with d. No end group written: not given here.

Assays:
[1] = test system: C2C12 cells; assay: Cellular ROS Levels Induced by TBHP in C2C12 Cells (DCFDA); format: cell-based, mouse; conditions: peptides 10 μM, 18-20 hours, then TBHP 100 μM 1 hour, relative to TBHP control
Method: The protective or synergistic effect of the peptides on cellular levels of reactive oxygen species (ROS) induced by oxidative stress can be assessed using an assay of ROS in cultured cells such as mouse myoblasts exposed to a suitable oxidative stress. Peptides were initially prepared as 10 mM stock in DMSO, diluted to 1 mM in H2O, and added at a final concentration of 10 μM (0.1% DMSO). […] TBHP was used at final concentration of 100 μM. Sulforaphane at final concentration of 10 µM was used as a protective control against TBHP induced ROS production. […] C2C12 cells were grown in DMEM supplemented with 20% FBS with 100 IU/ml penicillin and 100 μg/ml streptomycin. […] C2C12 cells were seeded at 7,500 cells per well on 96-well plates. […] After 18-20 hours of incubation the cells were loaded with DCFDA for 45 min. TBHP at 100 μM was then added to the appropriate wells for 1 hour. ROS activity was determined using a DCFDA Cellular ROS Detection Assay kit (Abcam, Cambridge, Mass.) according to the manufacturer's instructions. Fluorescence in each sample well on the plate was measured using a Cytation 3 plate reader at Ex/Em=485/535 nm (BioTek, Winooski, Vt.). Activity was calculated relative to TBHP control. The relative standard deviation of the sulforaphane control was <20%. The ROS level produced by the sulforaphane control in the presence of TBHP was 52% of the TBHP control.

[2] = test system: Caspase 3/7 in C2C12 cells; assay: Caspase 3/7 Activity in C2C12 Cells; format: cell-based, mouse; conditions: peptides 10 μM, 24 hours, relative to 0.1% DMSO control
Method: The effect of the peptides on cell death/survival can be assessed using a caspase-3/7 assay in cultured cells such as mouse myoblast cells. Peptides were initially prepared as 10 mM stock in DMSO, diluted to 1 mM in H2O, and used at a final concentration of 10 μM (0.1% DMSO). […] Staurosporine (Abcam, Cambridge, Mass.) was dissolved at 10 mM in DMSO as a stock solution. Caspase-Glo 3/7 Assay Reagent was purchased from Promega (Madison, Wis.). C2C12 cell line was purchased from American Type Culture Collection (Manassas, Va.). C2C12 cells were grown in DMEM supplemented with 20% FBS with 100 IU/ml penicillin and 100 μg/ml streptomycin. Cultures were maintained at 37° C. in a humidified atmosphere of 5% CO2/95% air. C2C12 cells were seeded at 4,000 cells per well on 96-well plates. The next day cells were incubated with test peptides at 10 μM or staurosporine at concentrations between 100 nM and 5 nM using a final concentration of 0.1% DMSO and maintained at 37° C. in a humidified atmosphere of 5% CO2/95% air for 24 hours. Caspase 3/7 activity was determined using a Caspase-Glo 3/7 Assay kit according to the manufacturer's instructions. Luminescence for each sample well on the plate was measured using a Cytation 3 plate reader (BioTek, Winooski, Vt.). Activity was calculated relative to 0.1% DMSO control.

[3] = test system: 3T3-L1 mouse adipocytes; assay: Free Fatty Acid Levels in 3T3-L1 Mouse Adipocytes (Example 12, 10 μM); format: cell-based; conditions: peptides 10 μM, 20-22 hours then 3 hours with isoproterenol 1 nM, 3T3-L1 mouse adipocytes
Method: The effect of the peptides on fatty acid metabolism can be assessed using an assay of free fatty acid levels in cultured cells such as mouse adipocytes. Peptides were initially prepared as 10 mM stock in DMSO, diluted to 1 mM in H2O, and used at a final concentration of 10 μM (0.1% DMSO). […] After 20-22 hours, 1 nM isoproterenol was added to all wells except untreated controls and test peptides were replenished. Insulin at 100 nM was added to control wells. […] Free fatty acid concentrations in the media were determined using a Free Fatty Acid Assay kit (Zen-Bio) according to the manufacturer's instructions using a Cytation 3 plate reader at 540 nm (BioTek, Winooski, Vt.). Absorbance values were corrected for untreated background and expressed relative to isoproterenol treated cells. Treatment with isoproterenol (1 nM) alone was used as the free fatty acid level stimulatory control. The relative standard deviation of the isoproterenol control was <10%. […] Free fatty acid levels for insulin (100 nM) treatment were <5% of the isoproterenol control value.

[4] = test system: DIO mice; assay: Metabolic parameters in DIO mice, twice daily intraperitoneal, 10 days (Example 16); format: in vivo, mouse; conditions: 5 mg/kg, male DIO mice
Method: Male C57BL/6 mice were maintained on a high fat diet for 18 weeks to develop diet induced obesity. Animals were randomized to treatment groups based on blood glucose levels and body weight. The peptides of the invention were administered to groups of male DIO mice twice daily by intraperitoneal injection at a dose of 5 mg/kg/dose for 10 days (N=8 animals per treatment group). An additional group of male DIO mice (n=8) received vehicle (water) alone administered twice daily by intraperitoneal injection. Body weight, blood glucose levels and food intake were monitored. Body mass distribution (fat vs lean) was determined by quantitative whole body NMR prior to dosing and at the end of dosing.

[5] = test system: C2C12 cells; assay: Cell Proliferation in C2C12 Cells (Cyquant DNA dye); format: cell-based, mouse; conditions: peptides 10 μM, 72 hours with readdition every 24 hours, relative to 0.1% DMSO control
Method: The effect of the peptides on cell proliferation was assessed using a DNA dye binding assay in cultured cells such as mouse myoblast cells. Peptides were initially prepared as 10 mM stock in DMSO, diluted to 1 mM in H2O, and added at a final concentration of 10 μM (0.1% DMSO). Lovastatin was used as a growth arrest control at final concentration of […]. […] C2C12 cells were grown in DMEM supplemented with 20% FBS with 100 IU/ml penicillin and 100 μg/ml streptomycin. […] C2C12 cells were seeded at 800 cells per well on 96-well plates. […] Cell proliferation was determined using Cyquant Direct Nucleic Acid Stain (Thermo Fisher Scientific, Waltham, Mass.) according to the manufacturer's instructions. Fluorescence for each sample well on the plate was measured using a Cytation 3 plate reader at Ex/Em=495/535 nm (BioTek, Winooski, Vt.). Activity was calculated relative to 0.1% DMSO untreated control. The relative standard deviation for the lovastatin control was <27%. The cell proliferation for the lovastatin control was <25% of the value for untreated control.

[6] = test system: C2C12 cells; assay: ATP Levels in Cultured C2C12 Cells (CellTiter-Glo); format: cell-based, mouse; conditions: peptides 10 μM, 3 days with readdition every 24 hours, relative to 0.1% DMSO control
Method: The effect of the peptides on cellular metabolism can be assessed using an assay of ATP levels in cultured cells such as mouse myoblast cells. Peptides were initially prepared as 10 mM stock in DMSO, diluted to 1 mM in H2O, and used at a final concentration of 10 μM (0.1% DMSO). […] Lovastatin was prepared as 10 mM stock in 70% Ethanol and used at final concentration of 10 µM containing 0.1% DMSO. CellTiter-Glo® Assay kit was purchased from Promega (Madison, Wis.). […] C2C12 cells were grown in DMEM medium supplemented with 20% FBS with 100 IU/ml penicillin and 100 μg/ml streptomycin. […] C2C12 cells were seeded at 800 cells per well on 96-well plates. […] ATP levels were determined using a CellTiter-Glo Assay kit according to the manufacturer's instructions. Luminescence for each sample well on the plate was measured using a Cytation 3 plate reader (BioTek, Winooski, Vt.). Activity was calculated relative to 0.1% DMSO treated control. The relative standard deviation of the result for the 0.1% DMSO treated control was <5%. […] ATP levels for treatment with lovastatin (10 μM) were <50% of the 0.1% DMSO treated control value.

Row | Substance | Cellular ROS levels induced by TBHP, Percent of Control [1] | Caspase 3/7 activity, Percent of Control Activity [2] | Free fatty acid levels, Percent of Isoproterenol Control Activity [3] | Difference from Vehicle Control: Decrease from Baseline in Blood Glucose [4] | Difference from Vehicle Control: Decrease from Baseline in Body Weight [4] | Difference from Vehicle Control: Decrease from Baseline in Fat Mass [4] | Cell proliferation, Percent of Control [5] | ATP levels, Percent of Control Activity [6]
1 | 11 (RLPGSAILTNPVL[dA]WVWV) [compound 11] | 103.5% | 98.7% | 47.2% | 4.76 mg/dL | −1.81% | -1.09 g | 98.1% | 100.7%
2 | 18 (S[dA]ILTNPVLGWVWV) [compound 18] | 100.7% | 97.0% | 95.9% | – | – | – | 101.7% | 103.2%
3 | 17 (GS[dA]ILTNPVLGWVWV) [compound 17] | 100.8% | 97.1% | 88.5% | – | – | – | 110.0% | 103.8%
4 | 16 (PGS[dA]ILTNPVLGWVWV) [compound 16] | 106.0% | 99.7% | 97.2% | – | – | – | 100.3% | 102.7%
5 | 15 (LPGS[dA]ILTNPVLGWVWV) [compound 15] | 101.5% | 105.6% | 92.8% | – | – | – | 115.1% | 101.6%
